Measured values published in patent US5189169A (priority 1991, dated 1993).
Several values for one entry are separate records, joined by “and”; a condition that tells them apart may be missing. Identical values can stand only once.

Assays:
[1] = test system: three broadleaf weeds: wild mustard, redroot pigweed and curly dock; assay: Post-emergence herbicidal activity, broadleaf weeds (Table III); assay type: in vivo, Brassica kaber, Amaranthus retroflexus, Rumex crispus; conditions: 2.24 kg/ha, 2-3 weeks after treatment
Procedure: (§1) The herbicidal effect was observed by comparing the extent of weed control in test flats treated with the compounds against that occurring in similar non-treated control flats. All were applied at 3.57 lb/A (4 kg/ha) to pre-emergence and post-emergence screening flats. An 80 gal/A (748.3 1/ha) spray volume was utilized. Post-emergence flats were seeded 12 days prior to treatment. Pre-emergence flats were seeded one day prior to treatment. Overhead watering of pre-emergence flats and soil surface watering of post-emergence flats, so as to avoid wetting the foliage, were carried out for the duration of the test.
(§2) Weed seeds were planted in a flat at a seed depth of 0.5 inch (1.3 cm). Soil for flats was prepared using loam soil fortified with 17-17-17 fertilizer (N-P2 O5 -K2 O on a weight basis) and Captan 80W fungicide. The test weeds were as follows:
(§3) The spray solutions were prepared by dissolving 240 mg of test compound in 20 ml of acetone containing 1% polyoxyethylene sorbitan monolaurate emulsifier, then adding 20 ml of water to the resulting solution. The spray solutions were applied using a linear spray table. Pre-emergence flats are raised to the level of the post-emergence foliage canopy by setting the flats on a wooden block.
(§4) The degree of weed control was visually assessed and recorded as percentage control compared to the growth of the same species in an untreated check flat of the same age. The rating scale ranges from 0 to 100%, where 0 equals no effect with plant growth equal to the untreated control, and 100 equals complete kill.
(§5) Compounds 68 to 145 in Table I were tested generally similarly to Compounds No. 1 to 67 with the following differences: The rate of application was 2 lb/acre (2.24 kg/ha), no 6-day evaluations were made, and the weeds were:
Three broadleaf weeds: wild mustard, redroot pigweed (Amaranthus retroflexus) and curly dock (Rumex crispus).
(§6) Ratings were taken 2-3 weeks after treatment.

[2] = test system: four grassy weeds: wild oat, watergrass, green foxtail and crabgrass; assay: Post-emergence herbicidal activity, grassy weeds (Table III); assay type: in vivo; conditions: 2.24 kg/ha, 2-3 weeks after treatment
Procedure: as §1, §2, §3, §4, §5
Four grassy weeds: wild oat, watergrass, green foxtail and crabgrass (Digitaria sanguinalis);
as §6

[3] = test system: three broadleaf weeds (morning glory, mustard, velvetleaf); set-up: species or system Ipomoea purpurea, Brassica kaber, Abutilon theophrasti; conditions: in vivo
[4] = test system: three grassy weeds (wild oat, watergrass, foxtail); set-up: species or system Avena fatua, Echinochloa crusgalli, Setaria viridis; conditions: in vivo
[5] = test system: three broadleaf weeds (morning glory, mustard, velvetleaf); set-up: species or system Ipomoea purpurea, Brassica kaber, Abutilon theophrasti; conditions: in vivo; remark: listed apart in the source
yellow nutsedge [6] = test system: yellow nutsedge; set-up: species or system Cyperus esculentus; conditions: in vivo
yellow nutsedge [7] = test system: yellow nutsedge; set-up: species or system Cyperus esculentus; conditions: in vivo; remark: listed apart in the source

CCN(CC)P(=O)(SC(C)C)N1CCCCCC1 (stereo not drawn) [Compound 101]
% Control, Post-Emergence, BL Avg. [1]: 100%
% Control, Post-Emergence, GR Avg. [2]: 69%

CCCCN(CCCC)P(=O)(SC(C)(C)C)N(C)C (stereo not drawn) [Compound 106]
% Control, Post-Emergence, BL Avg. [1]: 91%
% Control, Post-Emergence, GR Avg. [2]: 65%

CCN(CC)P(=O)(SCc1ccccc1)N(CC)CC [Compound 94]
% Control, Post-Emergence, BL Avg. [1]: 70%
% Control, Post-Emergence, GR Avg. [2]: 30%

CCCSP(=O)(N(CCC)CCC)N(C)c1cc(F)ccc1C (stereo not drawn) [Compound 67]
% Control, Post-emergence, BL avg. [3]: 95% and 100%
% Control, Pre-emergence, GR avg. [4]: 0%
% Control, Pre-emergence, BL avg. [5]: 16%
% Control, Pre-emergence, NS (yellow nutsedge [6]): 0%
% Control, Post-emergence, NS (yellow nutsedge [7]): 0%

CCCN(CCC)P(=O)(Sc1ccccc1Br)N(CCC)CCC [Compound 8]
% Control, Post-emergence, BL avg. [3]: 50% and 55%
% Control, Pre-emergence, GR avg. [4]: 0%
% Control, Pre-emergence, BL avg. [5]: 0%
% Control, Pre-emergence, NS (yellow nutsedge [6]): 0%
% Control, Post-emergence, NS (yellow nutsedge [7]): 0%

CCCCN(CC)P(=O)(SC(C)C)N(CC)CC (stereo not drawn) [Compound 140]
% Control, Post-Emergence, BL Avg. [1]: 66%
% Control, Post-Emergence, GR Avg. [2]: 68%

CCCSP(=O)(N(CCC)CCC)N(C)c1ccc(F)cc1F (stereo not drawn) [Compound 19]
% Control, Pre-emergence, GR avg. [4]: 0%
% Control, Pre-emergence, BL avg. [5]: 0%
% Control, Post-emergence, NS (yellow nutsedge [7]): 0%

CCCSP(=O)(N(CCC)CCC)N(C)c1ccc(F)c(F)c1F (stereo not drawn) [Compound 47]
% Control, Post-emergence, BL avg. [3]: 100% and 98%
% Control, Pre-emergence, GR avg. [4]: 0%
% Control, Pre-emergence, BL avg. [5]: 0%
% Control, Pre-emergence, NS (yellow nutsedge [6]): 0%
% Control, Post-emergence, NS (yellow nutsedge [7]): 0%

CCCCN(CCCC)P(=O)(SCCC)N(C)c1ccc(Cl)c(Cl)c1 (stereo not drawn) [Compound 21]
% Control, Post-emergence, BL avg. [3]: 20% and 40%
% Control, Pre-emergence, GR avg. [4]: 0%
% Control, Pre-emergence, BL avg. [5]: 0%
% Control, Pre-emergence, NS (yellow nutsedge [6]): 0%
% Control, Post-emergence, NS (yellow nutsedge [7]): 0%

CCN(CC)P(=O)(SC(C)C)N(CC)CC [Compound 103]
% Control, Post-Emergence, BL Avg. [1]: 73%
% Control, Post-Emergence, GR Avg. [2]: 67%

CCCSP(=O)(N(CC)CC)N(CC)CC [Compound 68]
% Control, Post-Emergence, BL Avg. [1]: 87%
% Control, Post-Emergence, GR Avg. [2]: 40%

CCCSP(=O)(N(CCC)CCC)N(CC)c1ccc(F)cc1 (stereo not drawn) [Compound 54]
% Control, Post-emergence, BL avg. [3]: 100%
% Control, Pre-emergence, GR avg. [4]: 0%
% Control, Pre-emergence, BL avg. [5]: 8%
% Control, Pre-emergence, NS (yellow nutsedge [6]): 0%
% Control, Post-emergence, NS (yellow nutsedge [7]): 0%

CCCSP(=O)(N(CC)CC)N1CCCCCC1 (stereo not drawn) [Compound 92]
% Control, Post-Emergence, BL Avg. [1]: 86%
% Control, Post-Emergence, GR Avg. [2]: 62%

CCCCSP(=O)(N(CCC)CCC)N1CCCCC1 (stereo not drawn) [Compound 74]
% Control, Post-Emergence, BL Avg. [1]: 100%
% Control, Post-Emergence, GR Avg. [2]: 47%

CCCSP(=O)(N(CCC)CCC)N1CCCCC1 (stereo not drawn) [Compound 73]
% Control, Post-Emergence, BL Avg. [1]: 87%
% Control, Post-Emergence, GR Avg. [2]: 55%

CCCCN(CCCC)P(=O)(SCC)N(C)C (stereo not drawn) [Compound 107]
% Control, Post-Emergence, BL Avg. [1]: 98%
% Control, Post-Emergence, GR Avg. [2]: 64%

CCCCN(CC)P(=O)(SCCC)N(CC)CC (stereo not drawn) [Compound 139]
% Control, Post-Emergence, BL Avg. [1]: 70%
% Control, Post-Emergence, GR Avg. [2]: 65%

CCCCSP(=O)(N(CCC)CCC)N(C)c1ccccc1 (stereo not drawn) [Compound 121]
% Control, Post-Emergence, BL Avg. [1]: 72%
% Control, Post-Emergence, GR Avg. [2]: 59%

C=CCSP(=O)(N(CCC)CCC)N1CCCCCC1 (stereo not drawn) [Compound 100]
% Control, Post-Emergence, BL Avg. [1]: 95%
% Control, Post-Emergence, GR Avg. [2]: 63%

CCCCSP(=O)(N(C)C)N(CCCC)CCCC (stereo not drawn) [Compound 110]
% Control, Post-Emergence, BL Avg. [1]: 98%
% Control, Post-Emergence, GR Avg. [2]: 93%

CCCCN(CC)P(=O)(SCC)N(CC)CC (stereo not drawn) [Compound 138]
% Control, Post-Emergence, BL Avg. [1]: 69%
% Control, Post-Emergence, GR Avg. [2]: 63%

CCC(C)SP(=O)(N(CC)CC)N(CC)CC (stereo not drawn) [Compound 104]
% Control, Post-Emergence, BL Avg. [1]: 87%
% Control, Post-Emergence, GR Avg. [2]: 77%

CCCCN(CC)P(=O)(SC1CCCCC1)N(CCC)CCC (stereo not drawn) [Compound 137]
% Control, Post-Emergence, BL Avg. [1]: 88%
% Control, Post-Emergence, GR Avg. [2]: 53%

C=CCSP(=O)(N(C)C)N(CCCC)CCCC (stereo not drawn) [Compound 112]
% Control, Post-Emergence, BL Avg. [1]: 87%
% Control, Post-Emergence, GR Avg. [2]: 56%

CCCCN(CC)P(=O)(SC(C)c1ccccc1)N(CC)CC (stereo not drawn) [Compound 143]
% Control, Post-Emergence, BL Avg. [1]: 69%
% Control, Post-Emergence, GR Avg. [2]: 52%

CCCCCCSP(=O)(N(CCCC)CCCC)N(CCCC)CCCC [Compound 134]
% Control, Post-Emergence, BL Avg. [1]: 90%
% Control, Post-Emergence, GR Avg. [2]: 56%

CCCSP(=O)(N(CCC)CCC)N(C)c1ccc(C#N)cc1 (stereo not drawn) [Compound 41]
% Control, Pre-emergence, GR avg. [4]: 0%
% Control, Pre-emergence, BL avg. [5]: 0%
% Control, Pre-emergence, NS (yellow nutsedge [6]): 0%
% Control, Post-emergence, NS (yellow nutsedge [7]): 0%

CCCN(CCC)P(=O)(SC(C)CC)N(C)c1ccccc1 (stereo not drawn) [Compound 122]
% Control, Post-Emergence, BL Avg. [1]: 79%
% Control, Post-Emergence, GR Avg. [2]: 56%

CCCN(CCC)P(=O)(SCC)N1CCCCC1 (stereo not drawn) [Compound 72]
% Control, Post-Emergence, BL Avg. [1]: 86%
% Control, Post-Emergence, GR Avg. [2]: 50%

CCCN(CCC)P(=O)(SC(C)C)N(C)c1ccccc1 (stereo not drawn) [Compound 120]
% Control, Post-Emergence, BL Avg. [1]: 71%
% Control, Post-Emergence, GR Avg. [2]: 50%

CCCCSP(=O)(N(CC)CC)N1CCCCCC1 (stereo not drawn) [Compound 93]
% Control, Post-Emergence, BL Avg. [1]: 99%
% Control, Post-Emergence, GR Avg. [2]: 73%

CCCCN(CCCC)P(=O)(SC1CCCCC1)N(CCCC)CCCC [Compound 136]
% Control, Post-Emergence, BL Avg. [1]: 90%
% Control, Post-Emergence, GR Avg. [2]: 50%

CCCC(CC)SP(=O)(N(CC)CC)N(CC)CC (stereo not drawn) [Compound 105]
% Control, Post-Emergence, BL Avg. [1]: 73%
% Control, Post-Emergence, GR Avg. [2]: 54.5%

CCCCSP(=O)(N(CC)CC)N(CC)CCCC (stereo not drawn) [Compound 141]
% Control, Post-Emergence, BL Avg. [1]: 86%
% Control, Post-Emergence, GR Avg. [2]: 65%

CCCN(CCC)P(=O)(SCC)N(CC)CC (stereo not drawn) [Compound 144]
% Control, Post-Emergence, BL Avg. [1]: 78%
% Control, Post-Emergence, GR Avg. [2]: 59%

CCCCN(CCCC)P(=O)(SCc1ccccc1)N(C)C (stereo not drawn) [Compound 113]
% Control, Post-Emergence, BL Avg. [1]: 83%
% Control, Post-Emergence, GR Avg. [2]: 48%
